Test results published in paper doi:10.1101/472670v4 (biorxiv, 2019).

Legend:
[1] = molecular target: T1, PTP1B (human recombinant, kit BML-AK822) (Homo sapiens, UniProt P18031); experiment: biochemical; conditions: read-out: % inhibition at 10 µM
T1 sequence (P18031 1-322 limits assumed): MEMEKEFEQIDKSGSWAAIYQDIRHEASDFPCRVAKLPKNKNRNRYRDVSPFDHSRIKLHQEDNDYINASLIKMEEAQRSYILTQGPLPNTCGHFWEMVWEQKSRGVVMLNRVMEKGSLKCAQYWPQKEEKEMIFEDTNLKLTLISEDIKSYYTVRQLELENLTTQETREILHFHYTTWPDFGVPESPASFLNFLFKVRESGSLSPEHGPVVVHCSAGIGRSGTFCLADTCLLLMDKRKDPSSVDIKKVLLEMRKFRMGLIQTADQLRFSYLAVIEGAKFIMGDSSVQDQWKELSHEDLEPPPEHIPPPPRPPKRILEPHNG

[2] = molecular target: T1, PTP1B (human recombinant, kit BML-AK822); experiment: Lineweaver-Burk with slope replot; type: biochemical
[3] = molecular target: T1, PTP1B (human recombinant, kit BML-AK822); experiment: colorimetric malachite green; type: biochemical
[4] = molecular target: T1, PTP1B (human recombinant, kit BML-AK822); experiment: colorimetric malachite green; type: biochemical; conditions: read-out: % inhibition at 10 µM

Row | SMILES | inhibition at 10 µM [1] | Ki [2] | IC50 [3] | inhibition at 10 µM [4]
1 | COc1ccc(CCN(C(=O)Cc2ccccc2)c2nc(-c3ccc(OC)cc3)cs2)cc1 [compound 38] | 76.6% | 8.59 µM | 5.8 µM | –
2 | O=C(c1ccc(Cl)cc1)N(c1ccc(F)cc1)c1nc(-c2ccccc2)cs1 [compound 21] | – | – | – | 37.2%
3 | COc1ccc(-c2csc(N(C(=O)c3ccc(Cl)cc3)c3ccc(F)cc3)n2)cc1 [compound 18] | 56.9% | – | 8.8 µM | –
4 | COc1ccc(C(=O)N(C2=NCCS2)c2ccccc2C(F)(F)F)cc1 [II, compound II] | – | – | – | 48%
5 | Cc1ccc(-c2csc(N(C(=O)c3ccc(Cl)cc3)c3ccc(F)cc3)n2)cc1 [compound 15] | – | – | – | 35.2%
6 | Cc1ccc(-c2csc(N(C(=O)CCc3ccccc3)c3ccc(F)cc3)n2)cc1 [compound 16] | – | – | – | 33%
7 | O=C(CCc1ccccc1)N(c1ccc(F)cc1)c1nc(-c2ccccc2)cs1 [compound 22] | 69% | – | – | –
8 | COc1ccc(-c2csc(N(C(=O)CCc3ccccc3)c3ccc(F)cc3)n2)cc1 [compound 19] | 74.7% | – | – | –
9 | Cc1ccc(-c2csc(N(C(=O)Cc3ccccc3)c3ccc(F)cc3)n2)cc1 [compound 17] | 60.3% | – | – | –
10 | COc1ccc(CCN(C(=O)CCc2ccccc2)c2nc(-c3ccc(OC)cc3)cs2)cc1 [compound 37] | 69.9% | – | 6.9 µM | –
